Measured values published in patent publication US20220197161A1, “ELECTROPHOTOGRAPHIC PHOTOCONDUCTOR, METHOD OF MANUFACTURING THE SAME, AND ELECTROPHOTOGRAPHIC EQUIPMENT” (FUJI ELECTRIC CO., LTD., priority 2020, published 2022).

Experiment: solubility SETM (THF): mass of tetrahydrofuran required to dissolve 1 g of the azoquinone derivative
Assay type: physicochemical
Settings: mass (g) of tetrahydrofuran required to dissolve 1 g of the azoquinone derivative
Excerpt: The solubility SETM (THF) of the azoquinone derivative having a structure represented by the general formula (ET1) (the mass (g) of tetrahydrofuran required to dissolve 1 g of the azoquinone derivative) preferably satisfies the following inequality:
For the azoquinone derivative having a structure represented by the general formula (ET1) in a preferred embodiment, the solubility SETM (THF), as represented by the mass (g) of tetrahydrofuran required to dissolve 1 g of the electron transport materials), of the electron transport materials also satisfies the following inequality:
The solubility SETM (THF) of the azoquinone derivative, as represented by the mass (g) of tetrahydrofuran required to dissolve 1 g of the azoquinone derivative having a structure represented by the above structural formula (ET1-4)), was 1 (g).

solubility SETM (THF) [g]	Compound
3	CC(C)(C)C1=CC(=CN=Nc2ccc(Cl)cc2)C=C(C(C)(C)C)C1=O [ET-1]
≤ 1	CC(C)(C)C1=CC(=CN=Nc2c(Cl)cccc2Cl)C=C(C(C)(C)C)C1=O [ET1-3]
15	CC(C)(C)C1=CC(=CN=Nc2ccc(F)cc2F)C=C(C(C)(C)C)C1=O [ET-2]
1	CC(C)(C)C1=CC(=CN=Nc2cc(Cl)ccc2Cl)C=C(C(C)(C)C)C1=O [ET1-4]
22	CC(C)(C)C1=CC(=CN=Nc2c(F)c(F)c(F)c(F)c2F)C=C(C(C)(C)C)C1=O [ET-3]
1	CC(C)(C)C1=CC(=CN=Nc2c(Cl)cc(Cl)cc2Cl)C=C(C(C)(C)C)C1=O [ET1-5]
